Results as given in patent US20100105651A1, “ANTAGONISTS OF SNS SODIUM CHANNELS” (priority 2005, published 2010).

Each compound was assayed against T1, human NaV1.8 (hNaV1.8) ion channel (Homo sapiens, UniProt Q9Y5Y9) (assay: Inhibition of Human NaV1.8 stably expressed in SH-SY-5Y cells (membrane potential dye fluorescence assay)). Settings: SH-SY-5Y cells stably expressing hNaV1.8; FLIPR membrane potential dye; 10 μM pyrethroid, 250 nM TTX; test range 100 μM-0.05 μM; read-out: hNav1.8 IC50.
T1 construct: expressed in transfected cells
T1 sequence (Q9Y5Y9 whole entry): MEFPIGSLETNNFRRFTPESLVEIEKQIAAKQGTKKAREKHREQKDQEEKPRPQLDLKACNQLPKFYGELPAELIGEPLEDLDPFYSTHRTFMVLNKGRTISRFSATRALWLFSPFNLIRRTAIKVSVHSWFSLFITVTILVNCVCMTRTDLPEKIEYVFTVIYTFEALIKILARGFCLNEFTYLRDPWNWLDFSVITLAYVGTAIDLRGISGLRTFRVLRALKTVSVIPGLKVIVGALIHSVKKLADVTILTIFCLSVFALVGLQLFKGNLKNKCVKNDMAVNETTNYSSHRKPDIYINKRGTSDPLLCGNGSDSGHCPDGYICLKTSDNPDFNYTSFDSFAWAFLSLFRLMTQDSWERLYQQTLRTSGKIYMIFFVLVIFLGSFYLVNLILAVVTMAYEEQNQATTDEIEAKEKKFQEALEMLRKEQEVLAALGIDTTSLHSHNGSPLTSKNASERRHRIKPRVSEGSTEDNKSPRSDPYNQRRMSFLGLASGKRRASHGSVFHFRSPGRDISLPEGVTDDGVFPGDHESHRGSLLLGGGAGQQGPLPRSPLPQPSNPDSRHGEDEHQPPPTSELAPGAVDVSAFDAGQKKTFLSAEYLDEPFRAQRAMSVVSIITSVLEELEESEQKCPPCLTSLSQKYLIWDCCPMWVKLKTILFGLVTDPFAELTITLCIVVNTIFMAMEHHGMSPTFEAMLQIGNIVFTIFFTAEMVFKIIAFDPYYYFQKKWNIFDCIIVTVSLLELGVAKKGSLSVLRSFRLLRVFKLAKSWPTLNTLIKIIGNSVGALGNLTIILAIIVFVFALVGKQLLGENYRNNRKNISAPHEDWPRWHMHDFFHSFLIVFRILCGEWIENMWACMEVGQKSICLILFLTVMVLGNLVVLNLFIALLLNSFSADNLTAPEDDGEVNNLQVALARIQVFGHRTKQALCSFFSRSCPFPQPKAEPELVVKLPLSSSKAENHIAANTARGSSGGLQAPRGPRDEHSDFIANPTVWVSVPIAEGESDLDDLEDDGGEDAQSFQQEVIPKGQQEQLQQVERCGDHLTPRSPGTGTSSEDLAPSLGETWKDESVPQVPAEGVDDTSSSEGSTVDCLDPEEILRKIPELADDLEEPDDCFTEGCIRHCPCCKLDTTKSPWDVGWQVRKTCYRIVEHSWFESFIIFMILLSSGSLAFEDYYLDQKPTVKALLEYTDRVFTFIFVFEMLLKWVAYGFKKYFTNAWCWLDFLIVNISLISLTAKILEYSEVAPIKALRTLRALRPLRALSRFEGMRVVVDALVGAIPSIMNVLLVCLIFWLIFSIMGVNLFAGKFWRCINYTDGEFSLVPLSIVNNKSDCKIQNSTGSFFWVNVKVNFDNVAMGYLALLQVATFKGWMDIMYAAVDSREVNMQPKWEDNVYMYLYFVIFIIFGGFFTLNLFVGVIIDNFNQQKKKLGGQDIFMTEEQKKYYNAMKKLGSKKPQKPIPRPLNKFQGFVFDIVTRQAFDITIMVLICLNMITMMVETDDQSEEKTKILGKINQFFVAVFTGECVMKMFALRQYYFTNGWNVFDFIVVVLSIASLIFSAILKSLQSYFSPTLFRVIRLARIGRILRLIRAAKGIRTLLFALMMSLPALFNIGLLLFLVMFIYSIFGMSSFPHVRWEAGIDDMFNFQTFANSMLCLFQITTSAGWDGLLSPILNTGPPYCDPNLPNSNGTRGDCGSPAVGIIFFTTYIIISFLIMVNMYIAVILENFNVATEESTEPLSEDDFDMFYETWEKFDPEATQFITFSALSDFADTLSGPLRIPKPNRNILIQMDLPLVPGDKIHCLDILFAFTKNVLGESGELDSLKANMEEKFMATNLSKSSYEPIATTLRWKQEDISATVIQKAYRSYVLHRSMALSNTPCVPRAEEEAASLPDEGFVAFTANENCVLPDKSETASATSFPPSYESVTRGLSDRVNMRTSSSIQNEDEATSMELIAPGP
Assay type: cell-based
Description: Inhibition of Human NaV1.8 stably expressed in SH-SY-5Y cells
A SH-SY-5Y neuroblastoma cell line stably expressing the human NaV1.8 (hNaV1.8) ion channel was constructed. This cell line has been used to develop a medium to high throughput assay for determining the ability of test compounds to inhibit membrane depolarisation mediated via the hNaV1.8 channel.
SH-SY-5Y hNaV1.8 are grown in adherent monolayer culture using 50:50 Ham's F-12/EMEM tissue culture medium supplemented with 15% (v/v) foetal bovine serum; 2 mM L-glutamine, 1% NEAA and 600 μg·ml^−1 Geneticin sulphate. Cells are removed from the tissue culture flask using trypsin/EDTA and re-plated into black walled, clear bottom 96-well assay plates at 50,000 cells·well^−1 24 hours prior to assay.
On the day of assay the cell assay plates are washed to remove cell culture medium using a sodium free assay buffer (145 mM tetramethyl ammonium chloride; 2 mM calcium chloride; 0.8 mM magnesium chloride hexahydrate; 10 mM HEPES; 10 mM glucose; 5 mM potassium chloride, pH 7.4). Fluorescent membrane potential dye solution (FLIPR™ membrane potential dye, Molecular Devices Corporation), containing 10 μM of a pyrethroid to prevent channel inactivation and 250 nM tetrodotoxin (TTX) to reduce interference from TTX-sensitive sodium channels present in the cell line. Test compound, initially dissolved in dimethyl sulfoxide but further diluted in sodium free buffer, is added to achieve the final test concentration range of 100 μM-0.05 μM.
Cell plates are incubated for 30 minutes at room temperature to allow equilibration of dye and test compound. Plates are then transferred to a fluorescence plate reader for fluorescence measurement using an excitation wavelength of 530 nm whilst measuring fluorescence emission at 565 nm. […] Membrane depolarisation is registered by an increase in fluorescence emission at 565 nm.
The change in fluorescence seen in each test well upon the addition of sodium containing buffer is calculated relative to the baseline fluorescence for that well. This figure is then used for calculating the IC50 for each test compound.
With `CCCCOc1ccc(NC(=O)N2CC(NC(C)c3ccccc3Cl)C2)cc1` (stereo not drawn) [Example 71, 3-[1-(2-Chloro-phenyl)-ethylamino]-azetidine-1-carboxylic acid (4-butoxy-phenyl)-amide] the IC50 was 0.77 µM. With `CC(NC1CN(C(=O)Nc2ccc(OC(F)(F)F)cc2)C1)c1ccc(F)cc1` (stereo not drawn) [Example 72, 3-[1-(4-Fluoro-phenyl)-ethylamino]-azetidine-1-carboxylic acid (4-trifluoromethoxy-phenyl)-amide] the IC50 was 3.21 µM. `CC(NC1CN(C(=O)Nc2cccc(C(F)(F)F)c2)C1)c1ccc(F)cc1` (stereo not drawn) [Example 73, 3-[1-(4-Fluoro-phenyl)-ethylamino]-azetidine-1-carboxylic acid (3-trifluoromethyl-phenyl)-amide] showed an IC50 of 2.56 µM. `CC(NC1CN(C(=O)Nc2cccc(C(F)(F)F)c2)C1)c1ccccc1Cl` (stereo not drawn) [Example 74, 3-[1-(2-Chloro-phenyl)-ethylamino]-azetidine-1-carboxylic acid (3-trifluoromethyl-phenyl)-amide] showed an IC50 of 2.86 µM. With `Cc1ccccc1C(C)NC1CN(C(=O)Nc2cccc(C(F)(F)F)c2)C1` (stereo not drawn) [Example 75, 3-(1-o-Tolyl-ethylamino)-azetidine-1-carboxylic acid (3-trifluoromethyl-phenyl)-amide] the IC50 was 2.26 µM. `CCCCOc1ccc(NC(=O)N2CC(N3CCc4cccc(OC)c4C3)C2)cc1` [Example 76, 3-(8-Methoxy-3,4-dihydro-1H-isoquinolin-2-yl)-azetidine-1-carboxylic acid (4-butoxy-phenyl)-amide] showed an IC50 of 1.41 µM. `CC(NC1CN(C(=O)Nc2ccc(Oc3ccccc3)cc2)C1)c1ccc(Oc2ccccc2)cc1` (stereo not drawn) [Example 77, 3-[1-(4-Phenoxy-phenyl)-ethylamino]-azetidine-1-carboxylic acid (4-phenoxy-phenyl)-amide] gave an IC50 of 1.09 µM. Compound `CC(NC1CN(C(=O)Nc2ccc(C(F)(F)F)cc2)C1)c1ccc(Oc2ccccc2)cc1` (stereo not drawn) [Example 78, 3-[1-(4-Phenoxy-phenyl)-ethylamino]-azetidine-1-carboxylic acid (4-trifluoromethyl-phenyl)-amide] has an IC50 of 1.3 µM. `CC(NC1CN(C(=O)Nc2ccc(Oc3ccccc3)cc2)C1)c1ccc(F)cc1` (stereo not drawn) [Example 79, 3-[1-(4-Fluoro-phenyl)-ethylamino]-azetidine-1-carboxylic acid (4-phenoxy-phenyl)-amide] gave an IC50 of 0.76 µM. In the case of `CC(c1ccc(OC(F)(F)F)cc1)N(C)C1CN(C(=O)Nc2ccc(Oc3ccccc3)cc2)C1` (stereo not drawn) [Example 80, 3-{Methyl-[1-(4-trifluoromethoxy-phenyl)-ethyl]-amino}-azetidine-1-carboxylic acid (4-phenoxy-phenyl)-amide], the IC50 is reported as 1.22 µM. `CC(c1ccc(F)cc1)N(C)C1CN(C(=O)Nc2cc(C(F)(F)F)ccc2F)C1` (stereo not drawn) [Example 81, 3-{[1-(4-Fluoro-phenyl)-ethyl]-methyl-amino}-azetidine-1-carboxylic acid (2-fluoro-5-trifluoromethyl-phenyl)-amide] showed an IC50 of 8.37 µM. With `CC(c1ccc(F)cc1)N(C)C1CN(C(=O)Nc2cc(F)cc(C(F)(F)F)c2)C1` (stereo not drawn) [Example 82, 3-{[1-(4-Fluoro-phenyl)-ethyl]-methyl-amino}-azetidine-1-carboxylic acid (3-fluoro-5-trifluoromethyl-phenyl)-amide] the IC50 was 5.73 µM. `CC(c1ccc(F)cc1)N(C)C1CN(C(=O)Nc2ccc(F)c(C(F)(F)F)c2)C1` (stereo not drawn) [Example 83, 3-{[1-(4-Fluoro-phenyl)-ethyl]-methyl-amino}-azetidine-1-carboxylic acid (4-fluoro-3-trifluoromethyl-phenyl)-amide] gave an IC50 of 3.93 µM. With `CC(c1ccc(F)cc1)N(C)C1CN(C(=O)Nc2cccc(C(F)(F)F)c2F)C1` (stereo not drawn) [Example 84, 3-{[1-(4-Fluoro-phenyl)-ethyl]-methyl-amino}-azetidine-1-carboxylic acid (2-fluoro-3-trifluoromethyl-phenyl)-amide] the IC50 was 5.8 µM. For `CCCCOc1cccc(NC(=O)N2CC(N(C)C(C)c3ccc(F)cc3)C2)c1` (stereo not drawn) [Example 85, 3-{[1-(4-Fluoro-phenyl)-ethyl]-methyl-amino}-azetidine-1-carboxylic acid (3-butoxy-phenyl)-amide], the IC50 was 1.46 µM.
